Results as given in patent US20240294478A1, “ANTI-CANCER COMPOUNDS AND METHODS OF USE” (YALE UNIVERSITY, priority 2021, published 2024).

Columns and labels:
Type in all cases: cell-based, human
HCT116 MLH1−/− cells = experiment: Short-term viability assay, HCT116 MLH1-/- cells +/- O6BG; conditions: with or without 10 μM O6BG pre-treatment
Method: (§1) FIG. 1B: Short-term viability assay curves for KL-50 in DLD1 MSH6-deficient cells pre-treated with 0.01% DMSO control (CTR) or 10 μM O^6BG (+O^6BG) for 1 h prior to KL-50 addition. […] Short-term viability assay curves for (FIG. 1E) KL-50 in HCT116 MLH1−/−cells or (FIG. 1F) HCT116 cells complemented with chromosome 3 carrying wildtype MLH1 (+Chr3) pre-treated with 0.01% DMSO control or 10 μM O^6BG (+O^6BG) for 1 h prior to KL-50 addition. […] For these figures, points, mean; error bars, SD; n>3 technical replicates.
(§2) Short-term Cell Viability Assay. Cells were seeded in 96-well plates at 1000 or 2000 cells/well and allowed to adhere at 23° C. for 60 min and then incubated overnight at 37° C. Cells were treated with indicated concentrations of compounds in triplicate for 4-6 days prior to fixation with 3.7% paraformaldehyde and nuclear staining with 1 μg/mL Hoechst 33342 dye. Cells were imaged on a Cytation 3 imaging reader (BioTek) and quantified using CellProfiler software. For in vitro short-term growth delay experiments, IC50 values were determined from the nonlinear regression equation, [inhibitor] vs normalized response with variable slope.

[1] = tested on: ATR-CHK1 and ATM-CHK2 signaling axes in LN229 MGMT+/−, MMR+/− cells; experiment: Western blotting of CHK1 and CHK2 phosphorylation; conditions: 20 μM, 24 or 48 h
Method: FIGS. 5A-5K: KL-50 activates DNA damage response pathways and cycle arrest in MGMT-cells, independent of MMR, and induces sensitivity in cells deficient in ICL or HR repair. […] Columns, mean; error bars, SD; n 5 technical replicates. FIGS. 5D-5K: KL-50 induces activation of the ATR-CHK1 and ATM-CHK2 signaling axes and delayed DNA repair foci formation in MGMT-deficient cells, independent of MMR status. […] Treatment with 1 μM doxorubicin for 24 h (Doxo) served as a positive control for p-CHK1 activation. […] Points, mean % cells with >10 foci; error bars, SD; n >5 technical replicates. […] Points, % cells with 10 foci, n>250 cells per condition.
A prior finding that the ATR-CHK1 signaling axis is activated in response to TMZ-induced replication stress in MGMT-deficient cells prompted analysis of the phosphorylation status of CHK1 and CHK2 in LN229 MGMT+/− and MMR+/−cells. […] Analysis of foci formation of the DDR factors phospho-SER139-H2AX (yH2AX), p53 binding protein 1 (53BP1), and phospho-SER33-RPA2 (pRPA) over the period of 2 to 48 h (FIGS. 5A-5C and FIGS. 5D-5I). […] However, these foci dissipate at later timepoints (72-96 h; FIGS. 5J-5K), and they are not associated with appreciable cellular toxicity (as shown earlier in FIGS. 2A and 2B).

LN229 MGMT− shMSH3 cells = experiment: Short-term viability assay, LN229 MGMT- shMSH3; conditions: for IC50: Homo sapiens, LN-229, Table III, read-out: IC50 against LN229 cell lines, MGMT− MMR−; for MGMT− RI: Table III
Method: The activity of KL-50 in MGMT-LN229 cells engineered to lack expression of other key MMR proteins including MSH6, MLH1, PMS2, and MSH3 was also confirmed. Western blotting was performed in LN229 MGMT+/−cells with stable expression of shRNA targeting MSH6, MLH1, PMS2, or MSH3 to confirm depletion of the shRNA targets. In shMSH6 cells, there was reduced expression of MSH2, and in shMLH1 cells, there was loss of PMS2, due to destabilization in the setting of loss of their heterodimeric partners. GAPDH serves as loading control. […] Short-term viability assay curves for KL-50 in LN229 MGMT+/−, MMR+/shMSH6 cells. […] Short-term viability assay curves for KL-50 in LN229 MGMT+/−, MMR+/shMLH1 cells. […] Short-term viability assay curves for KL-50 in LN229 MGMT+/−, MMR+/shPMS2 cells. […] Short-term viability assay curves for KL-50 in LN229 MGMT+/−, MMR+/shMSH3 cells.
MMR Protein shRNA Knockdown. pGIPZ lentiviral shRNA vectors targeting MSH2, MSH6, MLH1, PMS2, and MSH3 were purchased from Horizon Discovery (Table IV). Lentiviral particles were produced in HEK293T cells via co-transfection with lentiviral shRNA plasmid, pCMV-VSV-G envelope plasmid (Addgene, #8454) and psPAX2 packaging plasmid (Addgene, #12260), using Lipofectamine 3000 Reagent (Invitrogen, L3000001) per manufacturer's protocol. Viral particles were harvested 48 h post-transfection and used to transduce LN229 MGMT+/−cells in the presence of 8 μg/mL polybrene. Selection of pooled cells with lentiviral expression was established with 1 μg/mL puromycin 48 h post-transduction for 3 to 4 days. Single cell cloning was performed by limiting dilution and protein knockdown was confirmed by western blotting.
as §2

[2] = tested on: DLD1 colorectal adenocarcinoma cells (MSH6−); experiment: Short-term viability assay, DLD1 MSH6-deficient cells +/- O6BG; conditions: with or without 10 μM O6BG pre-treatment (MGMT depletion)
Method: as §1, §2

Compound	cytotoxicity in HCT116 MLH1-deficient cells (HCT116 MLH1−/− cells)	CHK1 and CHK2 phosphorylation [1]	IC50 (LN229 MGMT− shMSH3 cells)	MGMT− RI (LN229 MGMT− shMSH3 cells)	cytotoxicity in DLD1 cells [2]
NC(=O)c1ncn2c(=O)n(CCF)nnc12 [KL-50]	induced selective tumor cell killing specifically in the setting of O^6BG-induced MGMT suppression	induced CHK1 and CHK2 phosphorylation in MGMT-cells regardless of MMR status	7.9 ± 0.3 µM	0.6	toxic to these cells, but only after O^6BG-induced MGMT depletion
Cn1nnc2c(C(N)=O)ncn2c1=O [TMZ, 4-methyl-5-oxo-2,3,4,6,8-pentazabicyclo[4.3.0]nona-2,7,9-triene-9-carboxamide, reference compound]	inactive	only induced phospho-CHK1 and —CHK2 in MGMT−/MMR+cells	3.1 ± 0.6 µM	0.6	inactive
